Consider 16 molecules from US8492401B2, “Thiazolopyridine sirtuin modulating compounds” (Sirtris Pharmaceuticals, priority 2008, dated 2013).

The target of this test is T1, SIRT1 (Homo sapiens, UniProt Q96EB6).
T1 sequence (Q96EB6 1-747): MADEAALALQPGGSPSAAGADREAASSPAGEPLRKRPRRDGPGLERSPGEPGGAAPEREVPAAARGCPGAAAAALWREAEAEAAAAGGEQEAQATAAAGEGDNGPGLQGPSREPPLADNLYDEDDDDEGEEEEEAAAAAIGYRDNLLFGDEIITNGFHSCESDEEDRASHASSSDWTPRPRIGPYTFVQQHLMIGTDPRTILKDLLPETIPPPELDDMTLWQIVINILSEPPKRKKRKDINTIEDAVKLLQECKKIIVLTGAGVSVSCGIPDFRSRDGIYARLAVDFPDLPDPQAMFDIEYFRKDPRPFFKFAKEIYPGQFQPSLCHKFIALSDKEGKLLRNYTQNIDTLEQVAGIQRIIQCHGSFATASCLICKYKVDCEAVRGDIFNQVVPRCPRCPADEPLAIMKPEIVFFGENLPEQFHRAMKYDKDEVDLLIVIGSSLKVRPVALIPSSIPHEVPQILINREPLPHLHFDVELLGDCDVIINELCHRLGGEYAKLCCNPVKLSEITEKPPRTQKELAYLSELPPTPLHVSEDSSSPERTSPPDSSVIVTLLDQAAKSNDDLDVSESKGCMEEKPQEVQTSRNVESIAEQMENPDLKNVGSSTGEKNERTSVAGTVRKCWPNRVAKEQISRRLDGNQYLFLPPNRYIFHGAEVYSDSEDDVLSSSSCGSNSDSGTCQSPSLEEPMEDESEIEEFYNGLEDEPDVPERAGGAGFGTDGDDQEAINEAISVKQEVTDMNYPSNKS
The test is described as follows: Mass spectrometry based assay to identify modulators (activators) of SIRT1 activity. Type of test: biochemical. The settings on record: 0.5 μM peptide substrate, 120 μM βNAD+, 10 nM SIRT1, 25 minutes at 25° C.; for EC1.5: SIRT1 activation. The source says:
A mass spectrometry based assay was used to identify modulators of SIRT1 activity. The mass spectrometry based assay utilizes a peptide having 20 amino acid residues as follows: Ac-EE-K(biotin)-GQSTSSHSK(Ac)NleSTEG-K(5TMR)-EE-NH2 (SEQ ID NO: 1) wherein K(Ac) is an acetylated lysine residue and Nle is a norleucine. The peptide is labeled with the fluorophore 5TMR (excitation 540 nm/emission 580 nm) at the C-terminus. The sequence of the peptide substrate is based on p53 with several modifications. In addition, the methionine residue naturally present in the sequence was replaced with the norleucine because the methionine may be susceptible to oxidation during synthesis and purification.
The mass spectrometry assay is conducted as follows: 0.5 μM peptide substrate and 120 μM βNAD^+ is incubated with 10 nM SIRT1 for 25 minutes at 25° C. in a reaction buffer (50 mM Tris-acetate pH 8, 137 mM NaCl, 2.7 mM KCl, 1 mM MgCl2, 5 mM DTT, 0.05% BSA). Test compounds may be added to the reaction as described above. […] After the 25 minute incubation with SIRT1, 10 μL of 10% formic acid is added to stop the reaction. Reactions are sealed and frozen for later mass spec analysis. Determination of the mass of the substrate peptide allows for precise determination of the degree of acetylation (i.e. starting material) as compared to deacetylated peptide (product).
A control for inhibition of sirtuin activity is conducted by adding 1 μL of 500 mM nicotinamide as a negative control at the start of the reaction (e.g., permits determination of maximum sirtuin inhibition). A control for activation of sirtuin activity is conducted using 10 nM of sirtuin protein, with 1 μL of DMSO in place of compound, to determine the amount of deacetylation of the substrate at a given timepoint within the linear range of the assay. This timepoint is the same as that used for test compounds and, within the linear range, the endpoint represents a change in velocity.
For the above assay, SIRT1 protein was expressed and purified as follows. […] The protein was expressed by induction with 1 mM IPTG as an N-terminal His-tag fusion protein at 18° C. overnight and harvested at 30,000×g. Cells were lysed with lysozyme in lysis buffer (50 mM Tris-HCl, 2 mM Tris[2-carboxyethyl]phosphine (TCEP), 10 μM ZnCl2, 200 mM NaCl) and further treated with sonication for 10 min for complete lysis. The protein was purified over a Ni-NTA column (Amersham) and fractions containing pure protein were pooled, concentrated and run over a sizing column (Sephadex S200 26/60 global). The peak containing soluble protein was collected and run on an Ion-exchange column (MonoQ). Gradient elution (200 mM-500 mM NaCl) yielded pure protein. This protein was concentrated and dialyzed against dialysis buffer (20 mM Tris-HCl, 2 mM TCEP) overnight. The protein was aliquoted and frozen at −80° C. until further use.
Sirtuin modulating compounds that activated SIRT1 were identified using the assay described above and are shown below in Table 1. The EC1.5 values for the activating compounds are represented by A (EC1.5≦1 uM), B (EC1.5>1 and ≦10 uM), or C (EC1.5>10 uM). The percent maximum fold activation is represented by A (Fold activation≧300%), B (Fold Activation≧150% and <300%), or C (Fold Activation<150%).

For the molecule `O=C(Nc1ccccc1-c1nc2cccnc2s1)c1nc(-c2ccccc2)oc1CN1CCOCC1` [Compound 18, 5-(morpholinomethyl)-2-phenyl-N-(2-(thiazolo[5,4-b]pyridin-2-yl)phenyl)oxazole-4-carboxamide], the “FOLD ACT. (percent maximum fold activation)” value is “C (Fold Activation<150%)” and the EC1.5 result is “C (EC1.5>10 uM)”.

In the case of `O=C(Nc1ccccc1-c1nc2cccnc2s1)c1nc(-c2ccccc2)sc1CN1CCCC1` [Compound 11, 2-phenyl-5-(pyrrolidin-1-ylmethyl)-N-(2-(thiazolo[5,4-b]pyridin-2-yl)phenyl)thiazole-4-carboxamide], the “FOLD ACT. (percent maximum fold activation)” value is given as “C (Fold Activation<150%)”; the EC1.5 entry is “B (EC1.5>1 and ≦10 uM)”.

`O=C(Nc1ccccc1-c1nc2cc(CN3CCCC3)cnc2s1)c1csc(-c2ccccc2)n1` [Compound 3, 2-phenyl-N-(2-(6-(pyrrolidin-1-ylmethyl)thiazolo[5,4-b]pyridin-2-yl)phenyl)thiazole-4-carboxamide]: the “FOLD ACT. (percent maximum fold activation)” value was “B (Fold Activation≧150% and <300%)”; the EC1.5 result was “A (EC1.5≦1 uM)”.

For `COCCCc1sc(-c2ccccc2)nc1C(=O)Nc1ccccc1-c1nc2cc(CN3CCCC3)cnc2s1` [Compound 4, 5-(3-methoxypropyl)-2-phenyl-N-(2-(6-(pyrrolidin-1-ylmethyl)thiazolo[5,4-b]pyridin-2-yl)phenyl)thiazole-4-carboxamide], the “FOLD ACT. (percent maximum fold activation)” value was “B (Fold Activation≧150% and <300%)”; the EC1.5 entry is given as “A (EC1.5≦1 uM)”.

As for `O=C(Nc1ccccc1-c1nc2cccnc2s1)c1nc(-c2ccccc2)sc1CCCN1CCCC1` [Compound 8, 2-phenyl-5-(3-(pyrrolidin-1-yl)propyl)-N-(2-(thiazolo[5,4-b]pyridin-2-yl)phenyl)thiazole-4-carboxamide], the “FOLD ACT. (percent maximum fold activation)” value was “A (Fold activation≧300%)” and the EC1.5 entry is reported as “A (EC1.5≦1 uM)”.

Take `COCCN1CCN(Cc2cnc3sc(-c4ccccc4NC(=O)c4nc(-c5ccccc5)oc4C)nc3c2)CC1` [Compound 15, N-(2-(6-((4-(2-methoxyethyl)piperazin-1-yl)methyl)thiazolo[5,4-b]pyridin-2-yl)phenyl)-5-methyl-2-phenyloxazole-4-carboxamide]: the “FOLD ACT. (percent maximum fold activation)” value is “B (Fold Activation≧150% and <300%)”; the EC1.5 entry is recorded as “A (EC1.5≦1 uM)”.

For `COCCN1CCN(Cc2cnc3sc(-c4ccccc4NC(=O)c4nc(-c5ccccc5)cs4)nc3c2)CC1` [Compound 23, N-(2-(6-((4-(2-methoxyethyl)piperazin-1-yl)methyl)thiazolo[5,4-b]pyridin-2-yl)phenyl)-4-phenylthiazole-2-carboxamide], the “FOLD ACT. (percent maximum fold activation)” value is “A (Fold activation≧300%)” and the EC1.5 result was “A (EC1.5≦1 uM)”.

With `O=C(Nc1ccccc1-c1nc2cc(CN3CCCC3)cnc2s1)c1nc(-c2ccccc2)cs1` [Compound 22, 4-phenyl-N-(2-(6-(pyrrolidin-1-ylmethyl)thiazolo[5,4-b]pyridin-2-yl)phenyl)thiazole-2-carboxamide], the “FOLD ACT. (percent maximum fold activation)” value is “B (Fold Activation≧150% and <300%)”; the EC1.5 result is listed as “A (EC1.5≦1 uM)”.

Take `COCCN1CCN(Cc2sc(-c3ccccc3)nc2C(=O)Nc2ccccc2-c2nc3cccnc3s2)CC1` [Compound 12, 5-((4-(2-methoxyethyl)piperazin-1-yl)methyl)-2-phenyl-N-(2-(thiazolo[5,4-b]pyridin-2-yl)phenyl)thiazole-4-carboxamide]: the “FOLD ACT. (percent maximum fold activation)” value is listed as “A (Fold activation≧300%)” and the EC1.5 entry is “A (EC1.5≦1 uM)”.

Take `O=C(Nc1ccccc1-c1nc2cccnc2s1)c1nc(-c2ccccc2)sc1CCCN1CCOCC1` [Compound 13, 5-(3-morpholinopropyl)-2-phenyl-N-(2-(thiazolo[5,4-b]pyridin-2-yl)phenyl)thiazole-4-carboxamide]: the “FOLD ACT. (percent maximum fold activation)” value is “B (Fold Activation≧150% and <300%)”; the EC1.5 entry is recorded as “A (EC1.5≦1 uM)”.

As to `Cc1oc(-c2ccccc2)nc1C(=O)Nc1ccccc1-c1nc2cc(CN3CCOCC3)cnc2s1` [Compound 16, 5-methyl-N-(2-(6-(morpholinomethyl)thiazolo[5,4-b]pyridin-2-yl)phenyl)-2-phenyloxazole-4-carboxamide], the “FOLD ACT. (percent maximum fold activation)” value is “B (Fold Activation≧150% and <300%)”; the EC1.5 entry is reported as “A (EC1.5≦1 uM)”.

`O=C(Nc1ccccc1-c1nc2cc(CN3CCOCC3)cnc2s1)c1nc(-c2ccccc2)cs1` [Compound 24, N-(2-(6-(morpholinomethyl)thiazolo[5,4-b]pyridin-2-yl)phenyl)-4-phenylthiazole-2-carboxamide]: the “FOLD ACT. (percent maximum fold activation)” value is “B (Fold Activation≧150% and <300%)”; the EC1.5 entry is on record as “A (EC1.5≦1 uM)”.

As for `COCCN1CCN(Cc2cnc3sc(-c4ccccc4NC(=O)c4csc(-c5ccccc5)n4)nc3c2)CC1` [Compound 1, N-(2-(6-((4-(2-methoxyethyl)piperazin-1-yl)methyl)thiazolo[5,4-b]pyridin-2-yl)phenyl)-2-phenylthiazole-4-carboxamide], the “FOLD ACT. (percent maximum fold activation)” value is “A (Fold activation≧300%)” and the EC1.5 result was “A (EC1.5≦1 uM)”.

Consider `CC(C)N1CCN(Cc2sc(-c3ccccc3)nc2C(=O)Nc2ccccc2-c2nc3cccnc3s2)CC1` [Compound 9, 5-((4-isopropylpiperazin-1-yl)methyl)-2-phenyl-N-(2-(thiazolo[5,4-b]pyridin-2-yl)phenyl)thiazole-4-carboxamide], for which the “FOLD ACT. (percent maximum fold activation)” value is “A (Fold activation≧300%)” and the EC1.5 result is given as “A (EC1.5≦1 uM)”.

Turning to `O=C(Nc1ccccc1-c1nc2cccnc2s1)c1nc(-c2ccccc2)sc1CN1CCOCC1` [Compound 10, 5-(morpholinomethyl)-2-phenyl-N-(2-(thiazolo[5,4-b]pyridin-2-yl)phenyl)thiazole-4-carboxamide], the “FOLD ACT. (percent maximum fold activation)” value is “B (Fold Activation≧150% and <300%)”; the EC1.5 result is given as “A (EC1.5≦1 uM)”.

Take `O=C(Nc1ccccc1-c1nc2cccnc2s1)c1nc(-c2ccccc2)oc1CN1CCCC1` [Compound 20, 2-phenyl-5-(pyrrolidin-1-ylmethyl)-N-(2-(thiazolo[5,4-b]pyridin-2-yl)phenyl)oxazole-4-carboxamide]: the “FOLD ACT. (percent maximum fold activation)” value was “B (Fold Activation≧150% and <300%)”; the EC1.5 entry was “B (EC1.5>1 and ≦10 uM)”.
